This note sets out measurements from patent publication US7902354B2, “Lapachone compounds and methods of use thereof” (ArQule, Inc., priority 2006, dated 2011).

Structures can show the parent of a compound that is named as a salt.

Broadly, the melting point is the temperature, or range, at which the solid turns liquid. Compound `CC(C)(C)OC(=O)N1CCC2(CC1)CSC1=C(O2)c2cc(-c3ccncc3)ccc2C(=O)C1=O` yielded a melting point of 225 to 227 °C.

`COc1ccc2c(c1)C(=O)C(=O)C1=C2OC2(CCN(Cc3ccc(F)cc3)CC2)CS1`: the melting point lay within 219 to 221 °C. The figure for `O=C1C(=O)c2ccccc2C2=C1SCC1(CCN(C(=O)NS(=O)(=O)c3ccc(F)cc3)CC1)O2` is 173 to 180 °C.

The compound `O=C1C(=O)c2ccc(-c3ccccc3)cc2C2=C1SCC1(CCNCC1)O2` yielded a melting point of 83 to 87 °C. Compound `COc1ccc2c(c1)C(=O)C(=O)C1=C2OC2(CCN(C[C@H](O)Cc3ccccc3)CC2)CS1` came in with a melting point of 145 to 147 °C. As for `O=C1C(=O)c2ccc(Cl)cc2C2=C1SCC1(CCN(C[C@H](O)Cc3ccccc3)CC1)O2`, the melting point was in the range of 92 to 93 °C.

`O=C1C(=O)c2ccc(-c3ccc(C(F)(F)F)cc3)cc2C2=C1SCC1(CCNCC1)O2` yielded a melting point of 190 to 240 °C. Take `CC(C)(C)OC(=O)N1CCC2(CC1)CSC1=C(O2)c2cc(-c3cccc(C(F)(F)F)c3)ccc2C(=O)C1=O`: the melting point lay within 231 to 233 °C. `O=C1C(=O)c2ccccc2C2=C1SCC1(CCN(C(=O)NS(=O)(=O)c3ccccc3)CC1)O2` registered a melting point of 155 to 165 °C. In the case of `O=C1C(=O)c2ccccc2C2=C1SCC1(CCN(C(=O)c3ccc(-n4cccn4)cc3)CC1)O2`, the melting point is 299 to 300 °C. Compound `O=C1C(=O)c2ccc(Br)cc2C2=C1SCC1(CCN(Cc3ccc(F)cc3)CC1)O2` displayed a melting point of 210 to 211 °C.

On to `CC(C)(C)OC(=O)N1CCC2(CC1)CSC1=C(O2)c2cc(-c3cccnc3)ccc2C(=O)C1=O`, for which the melting point was 217 to 219 °C.

Take `O=C1C(=O)c2ccc(Cl)cc2C2=C1SCC1(CCN(C(=O)c3cccc(Cl)c3)CC1)O2`: the melting point fell in the range of 125 to 130 °C. Compound `O=C1C(=O)c2ccccc2C2=C1SCC1(CCN(CCCOc3ccc(Cl)cc3)CC1)O2` yielded a melting point of 130 to 132 °C. Turning to `O=C1C(=O)c2ccccc2C2=C1SCC1(CCSCC1)O2`, the melting point fell in the range of 221 to 223 °C. As for `O=C1C(=O)c2ccc(F)cc2C2=C1SCC1(CCN(C[C@H](O)Cc3ccccc3)CC1)O2`, the melting point lay within 76 to 77 °C.

Turning to `CC(C)(C)OC(=O)N1CCC(CC(=O)N2CCC3(CC2)CSC2=C(O3)c3ccccc3C(=O)C2=O)CC1`, the melting point was 110 to 113 °C. Regarding `O=C1C(=O)c2ccccc2C2=C1SCC1(CCN(C[C@H](O)COc3ccc(C(=O)OCc4ccccc4)cc3)CC1)O2`, the melting point lay in the range of 83 to 84 °C. On to `NC(=O)N1CCC2(CC1)CSC1=C(O2)c2ccccc2C(=O)C1=O`, for which the melting point is 218 to 220 °C. As to `CC(C)(C)c1ccc(OC[C@@H](O)CN2CCC3(CC2)CSC2=C(O3)c3cc(F)ccc3C(=O)C2=O)cc1`, the melting point fell in the range of 114 to 116 °C. The compound `O=C1C(=O)c2ccccc2C2=C1SCC1(CCN(CCc3ccccc3)CC1)O2` showed a melting point of 117 to 118 °C. The figure for `Cl.Cl.O=C1C(=O)c2ccc(N3CCOCC3)cc2C2=C1SCC1(CCNCC1)O2` is greater than 300 °C.

For the compound `COc1ccc2c(c1)C(=O)C(=O)C1=C2OC2(CCN(C[C@H](O)COc3ccc(C(C)(C)C)cc3)CC2)CS1`, the melting point lay within 188 to 190 °C.

Regarding `O=C1C(=O)c2ccc(-c3ccccc3)cc2C2=C1SCC1(CCN(Cc3ccc(F)cc3)CC1)O2`, the melting point lay within 197 to 198 °C. Regarding `CC(C)OCC(O)CN1CCC2(CC1)CSC1=C(O2)c2ccccc2C(=O)C1=O` (centres unmarked), the melting point is 97 to 99 °C. The figure for `COc1ccc2c(c1)C1=C(SCC3(CCN(C[C@H](O)COc4ccc(C(C)(C)C)cc4)CC3)O1)C(=O)C2=O` is 153 to 156 °C; for `O=C1C(=O)c2ccccc2C2=C1SCC1(CCN(C3CCN(C(=O)Oc4cccc(C(F)(F)F)c4)CC3)CC1)O2` it is 70 to 73 °C; for `O=C1C(=O)c2ccc(-c3cccnc3)cc2C2=C1SCC1(CCNCC1)O2` it is 213 to 215 °C.

As for `O=C1C(=O)c2ccccc2C2=C1SCC1(CCN(C(=O)c3cn4c5c(cccc35)CCC4)CC1)O2`, the melting point was 265 to 267 °C. `O=C1C(=O)c2ccc(-c3ccccc3)cc2C2=C1SCC1(CCN(C[C@H](O)COc3ccc(Cl)cc3)CC1)O2` displayed a melting point of 93 to 98 °C.

In the case of `CC(C)(C)c1ccc(OC[C@@H](O)CN2CCC(N3CCC4(CC3)CSC3=C(O4)c4ccccc4C(=O)C3=O)CC2)cc1`, the melting point fell in the range of 190 to 193 °C.

Take `O=C1C(=O)c2ccc(-c3ccccc3)cc2C2=C1SCC1(CCN(C[C@H](O)COc3ccc(F)cc3)CC1)O2`: the melting point lay within 173 to 175 °C. In turn, `O=C1C(=O)c2ccccc2C2=C1SCC1(CCCN(C(=O)Oc3cccc(C(F)(F)F)c3)CC1)O2` (centres unmarked) came in with a melting point of 111 to 114 °C.

Take `COc1ccc2c(c1)C(=O)C(=O)C1=C2OC2(CCN(C[C@H](O)COc3ccc(F)cc3)CC2)CS1`: the melting point is 189 to 191 °C. `CCCC(C)N1CCC2(CC1)CSC1=C(O2)c2ccccc2C(=O)C1=O` (centres unmarked): the melting point was in the range of 109 to 111 °C. The figure for `O=C1C(=O)c2ccc(-c3cccnc3)cc2C2=C1SCC1(CCN(C(=O)c3cccc(Cl)c3)CC1)O2` is 240 to 242 °C; for `CC(C)(C)c1ccc(OC[C@@H](O)CN2CCC3(CC2)CSC2=C(O3)c3cc(Cl)ccc3C(=O)C2=O)cc1` it is 94 to 97 °C; for `CC(C)(C)OC(=O)N1CCC2(CC1)CSC1=C(O2)c2cc(-c3ccc(C(F)(F)F)cc3)ccc2C(=O)C1=O` it is 238 to 240 °C. Consider `Cc1ccc(S(=O)(=O)NC(=O)N2CCC3(CC2)CSC2=C(O3)c3ccccc3C(=O)C2=O)cc1`, for which the melting point was 153 to 158 °C. Take `CC(C)(C)c1ccc(OC[C@H](O)CN2CCC3(CC2)CSC2=C(O3)c3cc(-c4ccccc4)ccc3C(=O)C2=O)cc1`: the melting point fell in the range of 94 to 97 °C.

`CC(C)(C)c1ccc(OC[C@@H](O)CN2CCC3(CC2)CSC2=C(O3)c3cc(-c4ccccc4)ccc3C(=O)C2=O)cc1` displayed a melting point of 151 to 152 °C. The figure for `O=C1C(=O)c2ccccc2C2=C1SCC1(CCN(C(=O)c3nc4ccccc4[nH]3)CC1)O2` is 266 to 268 °C. Take `O=C1C(=O)c2ccccc2C2=C1SCC1(CCN(C3CCCC3O)CC1)O2` (centres unmarked): the melting point is 110 to 113 °C.

As for `CCC(O)CN1CCC2(CC1)CSC1=C(O2)c2ccccc2C(=O)C1=O` (centres unmarked), the melting point was 180 to 182 °C. The compound `O=C1C(=O)c2ccccc2C2=C1SCC1(CCCN(C[C@H](O)Cc3ccccc3)C1)O2` (some centres unmarked) had a melting point of 65 to 67 °C. `O=C1C(=O)c2ccccc2C2=C1SCC1(CCN(C[C@H](O)COc3ccc4ccccc4c3)CC1)O2` came in with a melting point of 164 to 167 °C.

Compound `O=C1C(=O)c2ccccc2C2=C1SCC1(CCN(CC(O)Cc3ccc(Cl)cc3)CC1)O2` (centres unmarked) had a melting point of 195 to 196 °C.

`CC(C)N1CCC2(CC1)CSC1=C(O2)c2ccccc2C(=O)C1=O` displayed a melting point of 197 to 198 °C. In turn, `O=C1C(=O)c2ccc(Cl)cc2C2=C1SCC1(CCN(C[C@@H](O)Cc3ccccc3)CC1)O2` yielded a melting point of 92 to 96 °C. In turn, `O=C1C(=O)c2ccccc2C2=C1SCC1(CCN(C[C@H](O)COc3ccc4cc(Br)ccc4c3)CC1)O2` registered a melting point of 183 to 184 °C. Compound `O=C1C(=O)c2ccccc2C2=C1SCC1(CCC(c3ccccc3)CC1)O2` (centres unmarked) showed a melting point of 183 to 187 °C.

In turn, `CC(O)(Cc1ccccc1)CN1CCC2(CC1)CSC1=C(O2)c2ccccc2C(=O)C1=O` (centres unmarked) yielded a melting point of 186 to 187 °C. For `O=C1C(=O)c2ccc(Br)cc2C2=C1SCC1(CCN(C[C@H](O)Cc3ccccc3)CC1)O2`, the melting point lay within 82 to 84 °C. Turning to `COc1ccc2c(c1)C(=O)C(=O)C1=C2OC2(CCN(C[C@@H](O)Cc3ccccc3)CC2)CS1`, the melting point lay within 146 to 147 °C. Compound `O=C(NC1CCC2(CC1)CSC1=C(O2)c2ccccc2C(=O)C1=O)Oc1cccc(C(F)(F)F)c1` (centres unmarked) (as salt: hydrochloride) had a melting point of 198 to 199 °C. With `COc1ccc2c(c1)C(=O)C(=O)C1=C2OC2(CCN(C[C@H](O)COc3ccc(Cl)cc3)CC2)CS1`, the melting point was in the range of 189 to 191 °C.

With `COc1ccc2c(c1)C1=C(SCC3(CCN(C[C@H](O)COc4ccc(Cl)cc4)CC3)O1)C(=O)C2=O`, the melting point fell in the range of 109 to 110 °C. The figure for `O=C1C(=O)c2ccccc2C2=C1SCC1(CCN(CCCCc3ccccc3)CC1)O2` is 145 to 147 °C. The figure for `O=C1C(=O)c2ccccc2C2=C1SCC1(CCCN(C[C@@H](O)Cc3ccccc3)C1)O2` (some centres unmarked) is 59 to 60 °C; for `O=C1C(=O)c2ccc(-c3ccccc3)cc2C2=C1SCC1(CCN(C(=O)c3cccc(Cl)c3)CC1)O2` it is 240 to 241 °C. The figure for `Cl.O=C1C(=O)c2ccccc2C2=C1SCC1(CCN(C(=O)CC3CCNCC3)CC1)O2` is 200 to 202 °C; for `O=C1C(=O)c2ccc(Br)cc2C2=C1SCC1(CCN(C[C@@H](O)Cc3ccccc3)CC1)O2` it is 82 to 83 °C; for `O=C1C(=O)c2ccccc2C2=C1SCC1(CCCN(C(=O)c3cccc(Cl)c3)CC1)O2` (centres unmarked) it is 98 to 100 °C. `O=C1C(=O)c2ccccc2C2=C1SCC1(CCC(NC(=O)c3cccc(C(F)(F)F)c3)CC1)O2` (centres unmarked) (as salt: hydrochloride) came in with a melting point of 266 to 267 °C.

Consider `O=C1C(=O)c2ccccc2C2=C1SCC1(CCN(CCCOc3ccc(F)cc3)CC1)O2`, for which the melting point was in the range of 164 to 165 °C. As for `O=C1C(=O)c2ccc(-c3ccccc3C(F)(F)F)cc2C2=C1SCC1(CCNCC1)O2`, the melting point is 125 to 127 °C. As for `O=C1C(=O)c2ccc(-c3ccncc3)cc2C2=C1SCC1(CCN(C(=O)c3cccc(Cl)c3)CC1)O2`, the melting point was 265 to 267 °C. The compound `COc1ccc2c(c1)C(=O)C(=O)C1=C2OC2(CCN(C[C@@H](O)COc3ccc(C(C)(C)C)cc3)CC2)CS1` registered a melting point of 188 to 190 °C. Compound `COc1ccc2c(c1)C(=O)C(=O)C1=C2OC2(CCN(C(=O)Oc3cccc(C(F)(F)F)c3)CC2)CS1` came in with a melting point of 233 to 234 °C.

Compound `O=C1C(=O)c2ccccc2C2=C1SCC1(CCCN(C(=O)Oc3cccc(C(F)(F)F)c3)C1)O2` (centres unmarked) yielded a melting point of 95 to 99 °C. For the compound `CC(C)(C)c1ccc(OC[C@@H](O)CN2CCC3(CC2)CSC2=C(O3)c3cc(N4CCOCC4)ccc3C(=O)C2=O)cc1`, the melting point was in the range of 107 to 109 °C.
